Experimental data taken from article PMC13249053, “Mechanism of auranofin toxicity: Inhibition of tetrahydrobiopterin metabolism” (Toxicology and applied pharmacology, 2025).
Positions count from the first letter of the chain named. “Also recorded” adds a separate entry of the source.

Key:
[1] = tested on: BH4 formation in HaCaT cells; experiment: BH4 formation from sepiapterin in intact HaCaT cells (HPLC); format: cell-based, human; settings: intact HaCaT cells; auranofin 2 h, then 100 μM sepiapterin 3 h; read-out: IC50, inhibition of BH4 formation in intact HaCaT cells
Protocol: (§1) The growth medium was then removed and the cells incubated with growth medium containing 100 μM sepiapterin. […] BH2 and BH4 were then analyzed on a Jasco high-performance liquid chromatography system (Easton, MD) fitted with a Maxsil-10 C18 column (250 × 4 mm; Phenomenex, Torrance, CA). […] Cell viability following drug treatments was greater than 95 %.
Fig. 3. Effects of auranofin on BH2 and BH4 production in intact HaCaT cells treated with sepiapterin. HaCaT cells (~1 × 10^6 cells/well in 6 well culture plates) were incubated with control medium or medium containing increasing concentrations of auranofin for 2 h followed by 100 μM sepiapterin. After an additional 3 h, BH2 and BH4 were extracted from the cells and analyzed by HPLC with fluorescence detection. Left panel: Chromatograms showing BH2 and BH4 content of control cells and cells treated with Auranofin.
Fig. 6. […] Cells were treated with control medium or medium containing MTX (1 μM, 2 h), an inhibitor of DHFR, followed by 200 μM sepiapterin (upper panel) or BH2 (lower panel). After an additional 3 h incubation, cells were rinsed with PBS; BH2 and BH4 were then extracted and analyzed by HPLC as described in the Materials and Methods.

[2] = biological target: T1, SPR (Rattus norvegicus, UniProt P18297); experiment: Cellular SPR activity: BH2 formation from sepiapterin in the presence of methotrexate, PC12 cells; format: cell-based; settings: PC12 (rat pheochromocytoma); with methotrexate
T1 construct: endogenous in cells; host or cells: PC12
T1 sequence (P18297 whole entry): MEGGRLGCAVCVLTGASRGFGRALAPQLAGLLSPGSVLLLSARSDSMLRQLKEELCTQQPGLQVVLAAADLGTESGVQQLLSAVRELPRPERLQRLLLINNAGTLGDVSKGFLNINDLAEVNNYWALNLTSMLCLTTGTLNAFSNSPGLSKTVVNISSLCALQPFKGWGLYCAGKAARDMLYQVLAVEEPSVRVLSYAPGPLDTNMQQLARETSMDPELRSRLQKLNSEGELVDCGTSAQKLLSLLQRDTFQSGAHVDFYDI
Protocol: as §1

[3] = biological target: T2, DHFR (Rattus norvegicus, UniProt Q920D2); experiment: Cellular DHFR activity: BH4 formation from BH2, PC12 cells; format: cell-based; settings: PC12 (rat pheochromocytoma)
T2 construct: endogenous in cells; host or cells: PC12
T2 sequence (Q920D2 1-187): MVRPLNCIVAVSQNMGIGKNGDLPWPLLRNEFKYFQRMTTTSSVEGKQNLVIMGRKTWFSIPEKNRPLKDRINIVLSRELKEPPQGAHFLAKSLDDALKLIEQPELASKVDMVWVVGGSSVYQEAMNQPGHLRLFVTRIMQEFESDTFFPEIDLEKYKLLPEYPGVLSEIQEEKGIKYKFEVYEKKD
Protocol: as §1

[4] = biological target: T3, DHFR (Mus musculus, UniProt P00375); experiment: Cellular DHFR activity: BH4 formation from BH2, RAW264.7 cells; format: cell-based; settings: RAW264.7 (mouse macrophage)
T3 construct: endogenous in cells; host or cells: RAW264.7
T3 sequence (P00375 1-187): T2 sequence (Q920D2 1-187) with L27P, Q85R, K99R, V115I, E155G, I170V
Protocol: as §1

[5] = tested on: catecholamine and monoamine production in PC12 cells; experiment: Catecholamine and monoamine production in PC12 cells (HPLC, electrochemical detection); format: cell-based, rat; settings: auranofin 0.04–2.5 μM
Protocol: Catecholamine and monoamine production in PC12 cells were assayed as previously described ([Yang et al., 2015]). Briefly, cells grown in 10-cm culture dishes were treated in the absence or presence of auranofin (0.04–2.5 μM) in 10 ml of growth medium without FBS. After 24 h, the cells were removed from the plates, washed with phosphate-buffered saline, and centrifuged (1500 g, 10 min). Cell pellets (~8 × 10^6 cells) were resuspended in 1 ml of 0.1 N perchloric acid containing 200 μM EDTA and 350 μM sodium metabisulfite and sonicated on ice. Ly-sates were centrifuged (20,000 g, 10 min) and clear supernatants filtered using 0.22-μm filters. Extracts were then analyzed for neurotransmitters and their metabolites using a Waters 2695 high-performance liquid chromatography system (Waters Corp., Milford, MA) fitted with a cation exchange column (MD-150 3.2 × […] column; ESA Biosciences, Inc., Chelmsford, MA) using an isocratic mobile phase (MD-TM mobile phase; ESA Biosciences Inc.) containing 2.2 mM NaCl pumped at constant flow rate of 0.5 ml/min. Compounds were quantified by electrochemical detection using a glassy carbon working electrode (2 mm in diameter) with an in situ silver reference electrode (flow cell, 2 mm GC WE, ISAAC; Waters Corp.) ([Yochum et al., 2014]).
Fig. 9. […] Cells were analyzed for BH2 and BH4 as described in the Materials and Methods. […]

SMILES: CC[PH](CC)(CC)[Au][S][C@@H]1O[C@H](COC(C)=O)[C@@H](OC(C)=O)[C@H](OC(C)=O)[C@H]1OC(C)=O [auranofin, 2,3,4,6-tetra-O-acetyl-1-thio-β-D-glucopyranosato-S-triethyl phosphine gold]
- IC50 [1]: 7.9 µM
- IC50 [2]: 1 ± 0.11 µM
- IC50 [3]: 0.87 ± 0.09 µM
- IC50 [4]: 17.2 ± 0.63 µM
- production of monoamines (serotonin, dopamine) and their metabolites (5HIAA, DOPAC, HVA) [5]: concentration-dependent inhibition; also recorded: significantly reduced
